pIC50: −log10 of the molar value.
System: MDA-MB-468 spheroids with HUVEC/MSC, viability
Assay: Anticancer human tumor MDA-MB-468 cell line growth inhibition [PI3K];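 further: spheroids exposed to agents for seven days before readout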;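 on viability, T/C: 100% = DMSO vehicle control viability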
Conditions: for pIC50: curve of first compound; for viability, T/C: stronger effect = lower value
Outline: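 Agents were dosed from a top concentration near clinical Cmax (otherwise 10 microM) in half-log decrements, alone or combined with PI3K inhibitors. The spheroids contain tumor cells plus endothelial (HUVEC) and MSC stroma; viability is measured.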

[1] = second compound 0.0316 µM, first compound 0.0316 µM
[2] = second compound 0.0316 µM, first compound 0.1 µM
[3] = second compound 0.0316 µM, first compound 0.316 µM
[4] = second compound 0.0316 µM, first compound 1 µM
[5] = second compound 0.0316 µM, first compound 3.16 µM
[6] = second compound 0.0316 µM, first compound 10 µM
[7] = second compound 0.1 µM, first compound 0.0316 µM
[8] = second compound 0.1 µM, first compound 0.1 µM
[9] = second compound 0.1 µM, first compound 0.316 µM
[10] = second compound 0.1 µM, first compound 1 µM
[11] = second compound 0.1 µM, first compound 3.16 µM
[12] = second compound 0.1 µM, first compound 10 µM
[13] = second compound 0.316 µM, first compound 0.0316 µM
[14] = second compound 0.316 µM, first compound 0.1 µM
[15] = second compound 0.316 µM, first compound 0.316 µM
[16] = second compound 0.316 µM, first compound 1 µM
[17] = second compound 0.316 µM, first compound 3.16 µM
[18] = second compound 0.316 µM, first compound 10 µM
[19] = second compound 1 µM, first compound 0.0316 µM
[20] = second compound 1 µM, first compound 0.1 µM
[21] = second compound 1 µM, first compound 0.316 µM
[22] = second compound 1 µM, first compound 1 µM
[23] = second compound 1 µM, first compound 3.16 µM
[24] = second compound 1 µM, first compound 10 µM
[25] = second compound 3.16 µM, first compound 0.0316 µM
[26] = second compound 3.16 µM, first compound 0.1 µM
[27] = second compound 3.16 µM, first compound 0.316 µM
[28] = second compound 3.16 µM, first compound 1 µM
[29] = second compound 3.16 µM, first compound 3.16 µM
[30] = second compound 3.16 µM, first compound 10 µM
[31] = second compound 10 µM, first compound 0.0316 µM
[32] = second compound 10 µM, first compound 0.1 µM
[33] = second compound 10 µM, first compound 0.316 µM
[34] = second compound 10 µM, first compound 1 µM
[35] = second compound 10 µM, first compound 3.16 µM
[36] = second compound 10 µM, first compound 10 µM

C=CC(=O)N1CCN(c2nc(=O)n(-c3c(C)ccnc3C(C)C)c3nc(-c4c(O)cccc4F)c(F)cc23)C(C)C1 (stereo not drawn) + Cc1nc(NC(=O)N2CCCC2C(N)=O)sc1-c1ccnc(C(C)(C)C(F)(F)F)c1
pIC50 (second compound 0.0316 µM): < 5.00
pIC50 (second compound 0.1 µM): < 5.00
pIC50 (second compound 0.316 µM): < 5.00
pIC50 (second compound 1 µM): 5.21
pIC50 (second compound 3.16 µM): 5.90
pIC50 (second compound 10 µM): > 7.50
viability, T/C [1]: 94.9%
viability, T/C [2]: 92.7%
viability, T/C [3]: 82.9%
viability, T/C [4]: 131%
viability, T/C [5]: 113%
viability, T/C [6]: 67.8%
viability, T/C [7]: 93.2%
viability, T/C [8]: 100%
viability, T/C [9]: 97.1%
viability, T/C [10]: 122%
viability, T/C [11]: 95.9%
viability, T/C [12]: 63.6%
viability, T/C [13]: 101%
viability, T/C [14]: 100%
viability, T/C [15]: 88.1%
viability, T/C [16]: 91.6%
viability, T/C [17]: 86.2%
viability, T/C [18]: 57.5%
viability, T/C [19]: 77.4%
viability, T/C [20]: 80.9%
viability, T/C [21]: 78.1%
viability, T/C [22]: 88.3%
viability, T/C [23]: 56.9%
viability, T/C [24]: 44.9%
viability, T/C [25]: 82.7%
viability, T/C [26]: 63.7%
viability, T/C [27]: 55.8%
viability, T/C [28]: 60.8%
viability, T/C [29]: 40.9%
viability, T/C [30]: 37.2%
viability, T/C [31]: 43.8%
viability, T/C [32]: 31.2%
viability, T/C [33]: 34.3%
viability, T/C [34]: 25.6%
viability, T/C [35]: 21.9%
viability, T/C [36]: 15.8%

CC1(C)CCC(CN2CCN(c3ccc(C(=O)NS(=O)(=O)c4ccc(NCC5CCOCC5)c([N+](=O)[O-])c4)c(Oc4cnc5[nH]ccc5c4)c3)CC2)=C(c2ccc(Cl)cc2)C1
viability, T/C (compound 0.0316 µM): 92.6% [middle of 4 runs]
viability, T/C (compound 0.1 µM): 88% [middle of 4 runs]
viability, T/C (compound 0.316 µM): 97.9% [middle of 4 runs]
viability, T/C (compound 1 µM): 99.4% [middle of 4 runs]
viability, T/C (compound 3.16 µM): 72.8% [middle of 4 runs]

CC(C)NCC(C(=O)N1CCN(c2ncnc3c2C(C)CC3O)CC1)c1ccc(Cl)cc1 (stereo not drawn) + Cc1nc(NC(=O)N2CCCC2C(N)=O)sc1-c1ccnc(C(C)(C)C(F)(F)F)c1
pIC50 (second compound 0.0316 µM): 6.01
pIC50 (second compound 0.1 µM): 5.92
pIC50 (second compound 0.316 µM): 6.17
pIC50 (second compound 1 µM): 6.37
pIC50 (second compound 3.16 µM): 6.68
pIC50 (second compound 10 µM): > 7.50
viability, T/C [1]: 76.9%
viability, T/C [2]: 92.2%
viability, T/C [3]: 60.9%
viability, T/C [4]: 50.9%
viability, T/C [5]: 35.1%
viability, T/C [6]: 23.2%
viability, T/C [7]: 84.8%
viability, T/C [8]: 83.5%
viability, T/C [9]: 68%
viability, T/C [10]: 53.4%
viability, T/C [11]: 34.2%
viability, T/C [12]: 18.4%
viability, T/C [13]: 84.6%
viability, T/C [14]: 71.8%
viability, T/C [15]: 61%
viability, T/C [16]: 46.9%
viability, T/C [17]: 26.7%
viability, T/C [18]: 19.5%
viability, T/C [19]: 95.8%
viability, T/C [20]: 66.7%
viability, T/C [21]: 56.9%
viability, T/C [22]: 41.9%
viability, T/C [23]: 23.2%
viability, T/C [24]: 18%
viability, T/C [25]: 62.9%
viability, T/C [26]: 61%
viability, T/C [27]: 42.5%
viability, T/C [28]: 33%
viability, T/C [29]: 19.3%
viability, T/C [30]: 14.8%
viability, T/C [31]: 32.1%
viability, T/C [32]: 28.8%
viability, T/C [33]: 22%
viability, T/C [34]: 19.1%
viability, T/C [35]: 9.63%
viability, T/C [36]: 6.41%

CC(C)n1nc(-c2ccc3oc(N)nc3c2)c2c(N)ncnc21 + Cc1nc(NC(=O)N2CCCC2C(N)=O)sc1-c1ccnc(C(C)(C)C(F)(F)F)c1
pIC50 (second compound 0.0316 µM): 7.30
pIC50 (second compound 0.1 µM): 7.48
pIC50 (second compound 0.316 µM): 7.61
pIC50 (second compound 1 µM): 7.72
pIC50 (second compound 3.16 µM): 7.83
pIC50 (second compound 10 µM): > 9.50
viability, T/C (second compound 0.0316 µM, first compound 0.000316 µM): 88.3%
viability, T/C (second compound 0.0316 µM, first compound 0.001 µM): 82.8%
viability, T/C (second compound 0.0316 µM, first compound 0.00316 µM): 89.5%
viability, T/C (second compound 0.0316 µM, first compound 0.01 µM): 101%
viability, T/C [1]: 74.6%
viability, T/C [2]: 14.4%
viability, T/C (second compound 0.1 µM, first compound 0.000316 µM): 93.7%
viability, T/C (second compound 0.1 µM, first compound 0.001 µM): 79.6%
viability, T/C (second compound 0.1 µM, first compound 0.00316 µM): 85.5%
viability, T/C (second compound 0.1 µM, first compound 0.01 µM): 95%
viability, T/C [7]: 51.6%
viability, T/C [8]: 10.8%
viability, T/C (second compound 0.316 µM, first compound 0.000316 µM): 99.5%
viability, T/C (second compound 0.316 µM, first compound 0.001 µM): 94.3%
viability, T/C (second compound 0.316 µM, first compound 0.00316 µM): 86.2%
viability, T/C (second compound 0.316 µM, first compound 0.01 µM): 82.5%
viability, T/C [13]: 40.6%
viability, T/C [14]: 10.7%
viability, T/C (second compound 1 µM, first compound 0.000316 µM): 86.4%
viability, T/C (second compound 1 µM, first compound 0.001 µM): 75.6%
viability, T/C (second compound 1 µM, first compound 0.00316 µM): 63.6%
viability, T/C (second compound 1 µM, first compound 0.01 µM): 66.2%
viability, T/C [19]: 42.2%
viability, T/C [20]: 11.8%
viability, T/C (second compound 3.16 µM, first compound 0.000316 µM): 64.5%
viability, T/C (second compound 3.16 µM, first compound 0.001 µM): 58.4%
viability, T/C (second compound 3.16 µM, first compound 0.00316 µM): 61.1%
viability, T/C (second compound 3.16 µM, first compound 0.01 µM): 59.2%
viability, T/C [25]: 31.8%
viability, T/C [26]: 9.62%
viability, T/C (second compound 10 µM, first compound 0.000316 µM): 42.4%
viability, T/C (second compound 10 µM, first compound 0.001 µM): 21.8%
viability, T/C (second compound 10 µM, first compound 0.00316 µM): 32.1%
viability, T/C (second compound 10 µM, first compound 0.01 µM): 20.7%
viability, T/C [31]: 18.5%
viability, T/C [32]: 5.69%

CNC(=O)c1ccc(N2C(=S)N(c3ccc(C#N)c(C(F)(F)F)c3)C(=O)C2(C)C)cc1F + CC(Nc1ccc2c(c1)OCCn1cc(N3C(=O)OCC3C(F)F)nc1-2)C(N)=O
pIC50 (second compound 0.00316 µM): < 5.00
pIC50 (second compound 0.01 µM): < 5.00
pIC50 (second compound 0.0316 µM): < 5.00
pIC50 (second compound 0.1 µM): < 5.00
pIC50 (second compound 0.316 µM): < 5.00
pIC50 (second compound 1 µM): < 5.00
viability, T/C (second compound 0.00316 µM, first compound 0.0316 µM): 95.2%
viability, T/C (second compound 0.00316 µM, first compound 0.1 µM): 94.6%
viability, T/C (second compound 0.00316 µM, first compound 0.316 µM): 94.9%
viability, T/C (second compound 0.00316 µM, first compound 1 µM): 98.9%
viability, T/C (second compound 0.00316 µM, first compound 3.16 µM): 94.3%
viability, T/C (second compound 0.00316 µM, first compound 10 µM): 76.7%
viability, T/C (second compound 0.01 µM, first compound 0.0316 µM): 100%
viability, T/C (second compound 0.01 µM, first compound 0.1 µM): 107%
viability, T/C (second compound 0.01 µM, first compound 0.316 µM): 105%
viability, T/C (second compound 0.01 µM, first compound 1 µM): 107%
viability, T/C (second compound 0.01 µM, first compound 3.16 µM): 82.3%
viability, T/C (second compound 0.01 µM, first compound 10 µM): 76.5%
viability, T/C [1]: 90.7%
viability, T/C [2]: 105%
viability, T/C [3]: 80.5%
viability, T/C [4]: 98.5%
viability, T/C [5]: 80.8%
viability, T/C [6]: 62.2%
viability, T/C [7]: 85.9%
viability, T/C [8]: 84.1%
viability, T/C [9]: 83.5%
viability, T/C [10]: 85.8%
viability, T/C [11]: 82.1%
viability, T/C [12]: 56.4%
viability, T/C [13]: 95.6%
viability, T/C [14]: 84.6%
viability, T/C [15]: 75.8%
viability, T/C [16]: 95.2%
viability, T/C [17]: 94%
viability, T/C [18]: 57.1%
viability, T/C [19]: 88%
viability, T/C [20]: 76.4%
viability, T/C [21]: 79.9%
viability, T/C [22]: 79.9%
viability, T/C [23]: 73.3%
viability, T/C [24]: 57.1%

Source: PubChem BioAssay AID1963960 (Molecular Pharmacology Branch, DTP, NCI, 2024)
